# Tests used:
# Pyrenophora teres = assay: In vivo preventive test on Pyrenophora teres (net blotch on barley); conditions: 240 h, 500 ppm of active ingredient, preventive spray on barley, evaluated 10 days after inoculation, read-out: efficacy
# Septoria tritici = assay: In vivo preventive test on Septoria tritici (leaf spot on wheat); conditions: Zymoseptoria tritici, in Triticum aestivum; 500 ppm of active ingredient; preventive spray on wheat; evaluated 19 days after inoculation; read-out: efficacy
# Method: Example: In Vivo Preventive Test on Septoria tritici (Leaf Spot on Wheat)
# • Solvent: 5% by volume of Dimethyl sulfoxide • 10% by volume of Acetone • Emulsifier: 1 μl of Tween® 80 per mg of active ingredient
# The active ingredients were made soluble and homogenized in a mixture of Dimethyl sulfoxide/Acetone//Tween®80 and then diluted in water to the desired concentration.
# The young plants of wheat were treated by spraying the active ingredient prepared as described above. Control plants were treated only with an aqueous solution of Acetone/Dimethyl sulfoxide/Tween®80.
# After 24 hours, the plants were contaminated by spraying the leaves with an aqueous suspension of Septoria tritici spores. The contaminated wheat plants were incubated for 72 hours at 17° C. and at 100% relative humidity and then for 15 days at 20° C. and at 90% relative humidity.
# The test was evaluated 19 days after the inoculation. 0% means an efficacy which corresponds to that of the control plants while an efficacy of 100% means that no disease was observed.
# [1] = test system: Colletotrichum lindemuthianum; assay: In vivo preventive test on Colletotrichum lindemuthianum (leaf spot on bean); conditions: 168 h, 500 ppm of active ingredient, preventive spray on bean, evaluated 7 days after inoculation, read-out: efficacy
Compound,pest or weed control at 500 ppm (Pyrenophora teres) [%],pest or weed control at 500 ppm (Septoria tritici) [%],pest or weed control at 500 ppm [1] [%]
"COc1cccc(Oc2nnc(Cl)cc2C2=NOCC(Cc3ccc(C)cc3C)N2)c1F (racemic) [I-005, rac-3-[6-chloro-3-(2-fluoro-3-methoxy-phenoxy)pyridazin-4-yl]-5-[(2,4-dimethylphenyl)methyl]-5,6-dihydro-4H-1,2,4-oxadiazine]",90 to 100,90 to 100,90 to 100
"C=C(OCC)c1cc(C2=NOCC(Cc3ccc(C)cc3C)N2)c(Oc2cccc(C(F)(F)F)c2)nn1 (racemic) [I-009, rac-5-[(2,4-dimethylphenyl)methyl]-3-[6-(1-ethoxyvinyl)-3-[3-(trifluoro-methyl)phenoxy]pyridazin-4-yl]-5,6-dihydro-4H-1,2,4-oxadiazine]",90 to 100,90 to 100,90 to 100
"FC(F)(F)c1cccc(Oc2nnc(Cl)cc2C2=NOCC(Cc3ccc(Br)cc3Cl)N2)c1 (racemic) [I-016, rac-5-[(4-bromo-2-chloro-phenyl)methyl]-3-[6-chloro-3-[3-(trifluoromethyl)phenoxy]pyridazin-4-yl]-5,6-dihydro-4H-1,2,4-oxadiazine]",90 to 100,90 to 100,90 to 100
"COCCOc1c(Cl)nnc(Oc2cccc(C(F)(F)F)c2)c1C1=NOCC(Cc2ccc(C)cc2C)N1 (racemic) [I-072, rac-3-[6-chloro-5-(2-methoxyethoxy)-3-[3-(trifluoro-methyl)phenoxy]pyridazin-4-yl]-5-[(2,4-dimethylphenyl)methyl]-5,6-dihydro-4H-1,2,4-oxadiazine]",80 to 89,90 to 100,90 to 100

# Source: US12501900B2, “Heterocyclyl pyridazine as fungicidal compounds” (Bayer Aktiengesellschaft, priority 2018, dated 2025)
